The EC50 is the concentration that produces a half-maximal response. High values mean weaker potency, low ones greater potency.

The test system of the assay is HBV replication in HepG2-2.2.15 cells. Briefly: Inhibition of HBV replication dot-blot assay. Type of assay: cell-based. To be noted: Hepatitis B virus, 144 h, 6 days, reduction in HBV DNA levels. The method, then:
Compounds active in the HBV assembly assay are tested for their activity and toxicity in cellular assay. In the first anti-viral assay, the ability of compounds to inhibit HBV replication in an HBV-producing hepatoma cell line using the dot-blot method is evaluated.
(§1) Briefly, confluent monolayers of HepG2-2.2.15 cells are incubated with complete medium containing various concentrations of a test compound. Three days later, the culture medium is replaced with fresh medium containing the appropriately diluted test compound. Six days following the initial administration of the test compound, the cell culture supernatant is collected, and cell lysis is performed. The samples are applied onto Nylos membranes and DNA is immobilized to the membrane by UV cross-linking. After pre-hybridization, the HBV probe is added and the hybridization is performed overnight. The membranes are exposed to the KODAK films; antiviral activity is calculated from the reduction in HBV DNA levels (EC50). The EC50 for antiviral activity is calculated from the dose response curves of active compounds. Assay performance over time is monitored by the use of the standard positive control compounds ETV, BAY 41-4109, and HAP-1.
Selected compounds are tested for their activity and toxicity in cellular assay. In the first anti-viral assay, the ability of compounds to inhibit HBV replication in an HBV-producing hepatoma cell line using the dot-blot method is evaluated.
as §1, with “Confluent monolayers” for “Briefly, confluent monolayers”, “lysis was” for “lysis is”

Molecule `O=C(Nc1cc(F)c(F)c(F)c1)c1ccc(F)c(S[C@H]2CCCC[C@H](O)C2)c1` (racemic) [Example 14B, (±)-4-Fluoro-3-(((1R,3R)-3-hydroxycycloheptyl)thio)-N-(3,4,5-trifluorophenyl)benzamide] returned an EC50 of less than 10 µM.

`O=C(Nc1ccc(F)c(Cl)c1)c1ccc(F)c(SC2CCC[C@H](O)C2)c1` (mixture of isomers) [Example 21, (±)-N-(3-Chloro-4-fluorophenyl)-4-fluoro-3-(((1R,3R)-3-hydroxycyclohexyl)thio)benzamide] displayed an EC50 of less than 10 µM.

With `O=C(Nc1cc(F)c(F)c(F)c1)c1ccc(F)c(S[C@H]2CCCC[C@@H](O)C2)c1` (racemic) [Example 14A, (±)-4-Fluoro-3-(((1S,3R)-3-hydroxycycloheptyl)thio)-N-(3,4,5-trifluorophenyl)benzamide], the EC50 was less than 10 µM.

As for `O=C(Nc1ccc(F)c(Cl)c1)c1ccc(F)c(S[C@H]2CC[C@H](O)C2)c1` (racemic) [Example 25, (±)-N-(3-Chloro-4-fluorophenyl)-4-fluoro-3-(((1S,3S)-3-hydroxycyclopentyl)thio)benzamide], the EC50 was less than 10 µM.

Source of the values: patent US9597332B2, “Sulfide alkyl compounds for HBV treatment” (NOVIRA THERAPEUTICS, INC., priority 2014, dated 2017).
